From patent publication US9580451B2, “Sulfonic esters of metal oxides and methods of their use” (California Institute of Technology, priority 2013, dated 2017) come the findings set out here.

A short description of the data set: Relative fluorescence quantum yield measurement. It is filed as physicochemical. The settings on record: degassed toluene, tetraphenylporphyrin as standard. The protocol:
The Φem measurements were performed using degassed toluene solutions of 1,1-Al, 1-Ga, and tetraphenylporphyrin (as a standard). Samples were excited at λex=355 nm and the emission was observed from λem=500-800 nm. The standard tetraphenylporphyrin was excited at λex=514 nm and the emission was observed from λem=500-800 nm. Φem for tetraphenylporphyrin is 0.11.3 All relative fluorescence quantum yields were calculated based on the corresponding fluorescence spectra of the samples and the standard according to the equation: […]
where Φem(s) and Φem(x) are the relative fluorescence quantum yield of the standard and sample, respectively; As and Ax are the absorbance at the excitation wavelength for the standard and sample, respectively; Fs and Fx are the area under the corrected emission curve for the standard and sample, respectively; and ηs and ηx are the refractive index of the solvent used for the standard and sample, respectively.

For the compound `O=S(=O)(Cl)C1=Cc2nc1c(-c1c(F)c(F)c(F)c(F)c1F)c1ccc([nH]1)c(-c1c(F)c(F)c(F)c(F)c1F)c1ccc([nH]1)c(-c1c(F)c(F)c(F)c(F)c1F)c1cc(S(=O)(=O)Cl)c2[nH]1` [compound 1, 2,17-bischlorosulfonato-5,10,15-tris(pentafluorophenyl)corrole], the “φem, relative emission quantum yield” value stood at 0.094.
